Results: US5082943A, “Novel imidazole derivatives” (Nippon Chemiphar Co., Ltd., priority 1988, dated 1992)

Experiments:
H^+ +K^+ ATPase [1] = target: T1, H^+ +K^+ ATPase (Sus scrofa, UniProt P19156); test: H+ + K+ ATPase inhibitory effects (b) pig gastric mucosa; type: biochemical; conditions: pig gastric mucosa vesicle; incubated 37° C., 30 min, pH 5.5; read-out: H+ + K+ ATPase inhibitory action (IC50)
T1 construct: Gastric acid secretory cells of a pig gastric mucosa were isolated; from tissue; host or cells: pig gastric mucosa, vesicles from gastric acid secretory cells (Ficoll density gradient)
Experimental: Gastric acid secretory cells of a pig gastric mucosa were isolated in the same manner as in the test for rabbit gastric mucosa. A vesicle containing H^+ +K^+ ATPase was prepared by centrifuging the cells in Ficoll of discontinuous density gradient. The enzyme and each test compound were incubated at 37° C. for 30 min. in a solution which contained 2 mM of a bisTRIS-acetate buffer (pH 5.5). To the resulting mixture were added a solution of 37.5 mM of bisTRIS-acetate buffer solution (pH 7.4), 2 mM of magnesium chloride, 2 mM of ATP and 5 mM of potassium chloride, and the mixture was then heated to 37° C. for 10 min. for performing a reaction. The reaction was terminated by addition of 5% trichloroacetic acid solution, and an inorganic phosphorus liberated was quantitatively measured by Fiske-Subbarow method. The ATPase activity was determined from the obtained inorganic phosphorus value.
(§1) The above procedure was repeated except for not using potassium chloride to determine an ATPase activity in the absence of potassium chloride.
The desired […] ATPase activity was calculated by subtracting the ATPase activity value determined in the absence of KCl from the ATPase activity value determined in the presence of KCl.

[2] = system: secretion of gastric acid; test: Inhibitory action against the secretion of gastric acid (Test II), Heidenhain pouch dogs, histamine stimulated; type: in vivo, male beagle dogs; conditions: Canis lupus familiaris, Heidenhain pouch dog, histamine 160 ug/kg/hr, intravenous, read-out: Suppresive action on secretion of gastric acid (%)
Experimental: Heidenhain pouch dogs produced from male beagle dogs were fasted. To the dogs were then administered intarvenously histamine hydrochloride (gastric juice secretion inducing agent) continuously at a dose of 160 ug/kg/hr. The gastric juice was collected at an interval of 15 min. to measure the amount of gastric juice and acid output to determine an acid secretion amount (mEq/15 min).
The test compound was intravenously administered to the dogs at one hour after the initiation of histamine administration.
The inhibitory action was determined by comparing the acid secretion amount, with the corresponding amount of a control dog prepared in the same manner except that a vehicle alone was administered.

rats = test: Acute toxicity test, rats; type: in vivo; conditions: oral, 45 mg/kg/day for two weeks
Experimental: (§2) 2-[(2-Isobutylamino)benzylsulfinyl]imidazole (Example No. 10) was orally administered to rats and beagle dogs at a dose of 45 mg/kg/day for two weeks.

[3] = system: secretion of gastric acid; test: Inhibitory action against the secretion of gastric acid (Test I), pylorus ligated rats; type: in vivo, Male Donryu rats; conditions: rat, pylorus ligation, intraduodenal, 4 hours, acid output vs control
Experimental: Male Donryu rats having a body weight of 200 to 250 g were fasted (while allowing free access to water) for 24 hrs. in accordance with the conventional method [Shay, H. et al, Gastroenterology, 5, 43-61 (1945)]. Under ether anesthesia the pylorus was ligated and each test compound was administered intraduodenally. Four hours later, each rat was killed and the stomach was removed to collect the gastric juice. The inhibitory action was determined by comparing the acid output which was determined by titration to pH 7.0 with 0.1-N NaOH by means of an automatic titrator, with the corresponding value of control rat prepared in the same manner except that a vehicle alone was administered.

beagle dogs = test: Acute toxicity test, beagle dogs; type: in vivo; conditions: oral, 45 mg/kg/day for two weeks
Experimental: as §2

H^+ +K^+ ATPase [4] = target: T2, H^+ +K^+ ATPase (Oryctolagus cuniculus, UniProt P27112); test: H+ + K+ ATPase inhibitory effects (a) rabbit gastric mucosa; type: biochemical; conditions: rabbit gastric mucosa vesicle; 2×10^-4 M test compound, pH 6.0, 25 min preincubation; read-out: H+ + K+ ATPase inhibitory action (%)
T2 construct: gastric acid secretory cells of a rabbit gastric mucosa were isolated; from tissue; host or cells: rabbit gastric mucosa, vesicles from gastric acid secretory cells (Ficoll density gradient)
Experimental: Following the method of Forte et al (J. Applied Physiol., 32, 714-717 (1972)), gastric acid secretory cells of a rabbit gastric mucosa were isolated. A vesicle containing H^+ +K^+ ATPase was prepared by centrifuging the cells in Ficoll of discontinuous density gradient. After the enzyme was incubated at room temperature for 25 min. in 0.5 ml of a solution which contained 5 mM of an imidazole buffer (pH 6.0) and 2×10^-4 M of each test compound, the mixture was heated to 37° C. The mixture was then allowed to stand for further 5 min. To the mixture was added 0.5 ml of a solution which contained 4 mM of magnesium chloride, 80 mM of an imidazole buffer (pH 7.4), 20 mM of potassium chloride and 4 mM of ATP. The resulting mixture was reacted at 37° C. for 15 min. and 1 ml of a 24% trichloroacetic acid was then added to terminate the reaction. The inorganic phosphorus liberated was quantitatively determined by the method proposed by Taussky and Shorr (J. Biol. Chem., 202, […] (1953)). The ATPase activity was determined from the obtained inorganic phosphorus value.
as §1
The desired K^+ -dependent ATPase activity was calculated by subtracting the ATPase activity value determined in the absence of KCl from the ATPase activity value determined in the presence of KC1.

T2 sequence (P27112 2-1035 limits assumed): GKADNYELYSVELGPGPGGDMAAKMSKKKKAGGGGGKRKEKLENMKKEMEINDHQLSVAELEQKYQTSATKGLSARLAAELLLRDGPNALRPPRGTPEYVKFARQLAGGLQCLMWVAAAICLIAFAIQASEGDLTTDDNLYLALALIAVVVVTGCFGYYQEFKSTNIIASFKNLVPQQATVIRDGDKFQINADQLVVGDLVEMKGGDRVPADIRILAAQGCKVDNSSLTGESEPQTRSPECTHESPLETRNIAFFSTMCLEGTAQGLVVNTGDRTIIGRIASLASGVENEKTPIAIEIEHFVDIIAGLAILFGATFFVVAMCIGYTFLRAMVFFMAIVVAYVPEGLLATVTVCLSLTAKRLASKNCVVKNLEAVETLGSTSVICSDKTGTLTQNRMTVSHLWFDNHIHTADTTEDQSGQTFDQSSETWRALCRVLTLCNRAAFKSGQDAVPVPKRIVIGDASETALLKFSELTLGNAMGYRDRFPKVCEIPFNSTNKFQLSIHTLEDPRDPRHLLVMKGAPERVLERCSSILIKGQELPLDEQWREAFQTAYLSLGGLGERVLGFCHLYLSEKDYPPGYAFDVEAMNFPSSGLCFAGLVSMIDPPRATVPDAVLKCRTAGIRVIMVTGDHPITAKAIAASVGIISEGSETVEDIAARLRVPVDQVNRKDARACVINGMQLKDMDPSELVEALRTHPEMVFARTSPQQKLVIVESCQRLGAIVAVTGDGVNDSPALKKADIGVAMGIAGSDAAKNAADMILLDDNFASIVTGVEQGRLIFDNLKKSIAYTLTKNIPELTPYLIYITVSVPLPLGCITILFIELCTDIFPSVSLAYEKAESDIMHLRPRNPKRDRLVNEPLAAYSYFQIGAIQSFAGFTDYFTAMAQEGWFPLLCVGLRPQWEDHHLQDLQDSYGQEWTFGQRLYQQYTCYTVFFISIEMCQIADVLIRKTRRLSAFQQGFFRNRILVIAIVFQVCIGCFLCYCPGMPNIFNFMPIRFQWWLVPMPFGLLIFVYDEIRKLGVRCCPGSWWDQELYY
T2 sequence (P18597 whole entry partner): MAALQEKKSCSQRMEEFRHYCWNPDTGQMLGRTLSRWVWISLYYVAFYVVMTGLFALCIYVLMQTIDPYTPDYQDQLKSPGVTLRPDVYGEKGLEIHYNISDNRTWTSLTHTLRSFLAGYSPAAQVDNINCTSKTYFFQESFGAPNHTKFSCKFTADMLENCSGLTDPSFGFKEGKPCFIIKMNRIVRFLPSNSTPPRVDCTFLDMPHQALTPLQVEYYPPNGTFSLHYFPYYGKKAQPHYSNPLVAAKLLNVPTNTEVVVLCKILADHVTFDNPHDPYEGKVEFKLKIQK
T1 sequence (P19156 2-1034 limits assumed): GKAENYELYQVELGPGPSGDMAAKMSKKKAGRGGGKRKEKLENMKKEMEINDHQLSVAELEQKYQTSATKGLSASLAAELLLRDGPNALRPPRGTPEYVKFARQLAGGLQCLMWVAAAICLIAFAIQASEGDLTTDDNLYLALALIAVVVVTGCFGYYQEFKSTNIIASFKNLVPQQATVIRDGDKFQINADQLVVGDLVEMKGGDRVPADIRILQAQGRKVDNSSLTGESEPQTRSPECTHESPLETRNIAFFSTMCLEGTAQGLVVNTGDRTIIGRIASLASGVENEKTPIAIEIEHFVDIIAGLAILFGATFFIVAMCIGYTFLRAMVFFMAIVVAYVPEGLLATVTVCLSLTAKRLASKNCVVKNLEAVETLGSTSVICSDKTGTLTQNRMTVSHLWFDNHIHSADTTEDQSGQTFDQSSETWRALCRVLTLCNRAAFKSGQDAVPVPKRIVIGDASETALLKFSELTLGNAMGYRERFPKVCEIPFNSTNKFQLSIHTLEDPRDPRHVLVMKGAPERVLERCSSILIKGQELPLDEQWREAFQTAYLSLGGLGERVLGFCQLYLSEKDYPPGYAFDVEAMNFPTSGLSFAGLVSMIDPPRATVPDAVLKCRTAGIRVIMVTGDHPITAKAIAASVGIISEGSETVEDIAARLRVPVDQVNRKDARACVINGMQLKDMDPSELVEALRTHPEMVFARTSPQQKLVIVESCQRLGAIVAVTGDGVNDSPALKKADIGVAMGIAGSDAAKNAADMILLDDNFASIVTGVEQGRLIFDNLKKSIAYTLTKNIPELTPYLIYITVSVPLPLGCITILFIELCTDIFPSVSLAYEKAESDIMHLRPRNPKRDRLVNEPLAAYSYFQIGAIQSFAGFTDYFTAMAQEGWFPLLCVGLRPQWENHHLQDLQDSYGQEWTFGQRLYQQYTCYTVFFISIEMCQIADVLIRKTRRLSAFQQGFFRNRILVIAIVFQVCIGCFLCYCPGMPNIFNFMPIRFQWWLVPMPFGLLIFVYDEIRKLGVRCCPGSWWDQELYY
T1 sequence (P18434 whole entry partner): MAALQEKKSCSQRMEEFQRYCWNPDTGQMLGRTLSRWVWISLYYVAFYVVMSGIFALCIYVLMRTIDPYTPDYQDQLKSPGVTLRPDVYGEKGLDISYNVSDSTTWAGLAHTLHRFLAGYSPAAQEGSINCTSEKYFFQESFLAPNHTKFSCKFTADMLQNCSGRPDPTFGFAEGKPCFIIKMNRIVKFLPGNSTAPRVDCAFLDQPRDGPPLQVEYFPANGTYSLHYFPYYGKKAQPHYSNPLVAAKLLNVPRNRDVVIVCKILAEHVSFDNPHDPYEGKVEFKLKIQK

Row | SMILES | inhibition in vivo at 3 mg/kg [2] | Suppresive action on secretion of gastric acid (%) ([3]; 10 mg/kg) | Suppresive action on secretion of gastric acid (%) ([3]; 30 mg/kg) | inhibition in vivo at 1 mg/kg [2] | further results
1 | CNc1ccccc1C[S+]([O-])c1nc2c([nH]1)CCCC2 (stereo not shown) [Example No. 2, 2-(2-methylaminobenzylsulfinyl)-4,5,6,7-tetrahydro-1H-benzimidazole] | 53% |  |  |  | IC50 (H^+ +K^+ ATPase [1]): 1.8 µM
2 | CNc1ccccc1C[S+]([O-])c1ncc[nH]1 (stereo not shown) [Example No. 8, 2-(2-methylaminobenzylsulfinyl)imidazole] |  |  |  |  | IC50 (H^+ +K^+ ATPase [1]): 2.8 µM
3 | CC(C)CNc1ccccc1CSc1ncc[nH]1 [Example No. 9, 2-[(2-isobutylamino)benzylthio]imidazole] | 11% |  |  |  | 
4 | CC(C)CNc1ccccc1C[S+]([O-])c1ncc[nH]1 (stereo not shown) [Example No. 10, 2-[(2-isobutylamino)benzylsulfinyl]imidazole] | 81% | 56.2% | 87.0% |  | Acute toxicity: noticeable change (rats): no noticeable change; Acute toxicity: noticeable change (beagle dogs): no noticeable change; inhibition at 200 µM (H^+ +K^+ ATPase [4]): 97.2%
5 | CNc1ccc(C)cc1C[S+]([O-])c1ncc[nH]1 (stereo not shown) [Example No. 14, 2-[(5-methyl-2-methylamino)benzylsulfinyl]imidazole] | 97% | 82.2% | 98.6% |  | inhibition at 200 µM (H^+ +K^+ ATPase [4]): 90.8%
6 | CC(C)Nc1ccccc1C[S+]([O-])c1ncc[nH]1 (stereo not shown) [Example No. 23, 2-[(2-isopropylamino)benzylsulfinyl]imidazole] | 66% |  |  |  | 
7 | CCNc1ccccc1C[S+]([O-])c1ncc[nH]1 (stereo not shown) [Example No. 25, 2-[(2-ethylamino)benzylsulfinyl]imidazole] | 80% | 74.0% | 93.3% |  | inhibition at 200 µM (H^+ +K^+ ATPase [4]): 87.5%
8 | [O-][S+](Cc1ccccc1NCc1ccccc1)c1ncc[nH]1 (stereo not shown) [Example No. 27, 2-[(2-benzylamino)benzylsulfinyl]imidazole] | 57% |  |  |  | 
9 | COc1ccc(NCC(C)C)c(C[S+]([O-])c2ncc[nH]2)c1 (stereo not shown) [Example No. 29, 2-[(2-isobutylamino-5-methoxy)benzylsulfinyl]imidazole] | 81% | 30.8% | 89.0% | 30% | 
10 | CNc1cccc(C)c1C[S+]([O-])c1ncc[nH]1 (stereo not shown) [Example No. 33, 2-[(2-methyl-6-methylamino)benzylsulfinyl]imidazole] |  | 92.9% | 91.4% | 70% | 
11 | CNc1ccccc1C[S+]([O-])c1nc(C)c[nH]1 (stereo not shown) [Example No. 37, 4-methyl-2-[(2-methylamino)benzylsulfinyl]imidazole] | 50% |  |  |  | 
12 | COc1cccc(NCC(C)C)c1C[S+]([O-])c1ncc[nH]1 (stereo not shown) [Example No. 41, 2-[(2-isobutylamino-6-methoxy)benzylsulfinyl]imidazole] | 97% |  |  | 66% | 
13 | Cc1cccc(NCC(C)C)c1C[S+]([O-])c1ncc[nH]1 (stereo not shown) [Example No. 45, 2-[(2-isobutylamino-6-methyl)benzylsulfinyl]imidazole] |  | 86.8% | 90.3% | 82% | 
14 | Cc1ccc(C[S+]([O-])c2ncc[nH]2)c(NCC(C)C)c1 (stereo not shown) [Example No. 47, 2-[(2-isobutylamino-4-methyl)benzylsulfinyl]imidazole] |  |  |  | 87% | 
